Data as given in patent publication US20090030066A1, “SMALL MOLECULES FOR THE PROTECTION OF PANCREATIC CELLS” (priority 2007, published 2009).

Experiments:
RINm5F rat islet β-cells = assay: MTT viability of palmitic acid-treated RINm5F islet β-cells; format: cell-based; details: for A540 (MTT, relative number of viable cells): 24 h, mean ± S.D. n=8
Excerpt: (§1) In the Examples below, an MTT assay was used to determine the relative number of viable cells after treatments. This calorimetric assay is based on the ability of living cells, but not dead cells, to reduce 3-(4,5-dimethyl thiazol-2-yl)-2,5-diphenyltetrazolium bromide. [Carmichael, J, De Graff, W. G., Gazdar, A. F., Minna, J. D. and Mitchell, J. B. (1987) Evaluation of tetrazolium-based semiautomated calorimetric assay: Assessment of chemosensitivity testing. Cancer Res. 47, 936-942], which is hereby incorporated by reference. For this assay, cells were plated in 96-well plates, and the MTT assay was performed as described in the above article both in untreated and treated cell cultures. The MTT assay also was performed at the time when the treatment was started to allow for assessment of the proliferation and survival rates in the control and treated cell cultures. In the MTT assay, higher values mean proportionally higher numbers of viable cells.
RINm5F rat islet β-cells (ATCC CRL-2058; secondary clone of RIN-m clone secreting only insulin, but no somatostatin or glucagon) were used to determine if CCompound1 could protect them against fatty acid-induced cell death. The medium for propagation: RPMI 1640/10% fetal bovine serum.
Palmitic acid (purchased from Sigma-Aldrich) was dissolved in 200 mM ethanol and then diluted 1:25 with Krebs-Ringer-Hepes buffer containing 20% bovine serum albumin (fraction V, fatty acid-free; from Sigma-Aldrich). The fatty acid mixture was gently agitated at 37° C. under nitrogen overnight. The cells were seeded into 96-well plates at a density of 8,000 cells per well. When the cultures reached 70% confluence, fatty acid or a corresponding amount of albumin and CCompound1 (suspended in the medium) were added to the medium and incubations continued for 24 hours. This was followed by the MTT assay to determine the relative number of viable cells.

NIT-1 β-cells = assay: MTT viability of STZ-treated NIT-1 islet β-cells; format: cell-based, mouse; details: for A540 (MTT, relative number of viable cells): 30 h, 2% serum, mean ± std. dev. n=8
Excerpt: as §1
NIT-1 β-cells, originally isolated from transgenic NOD mouse carrying SV 40 large T antigen gene on a rat insulin promoter, were obtained from American Type Culture Collection (ATCC CRL-2055). NIT-1 cells contain and secrete insulin, while at the same time they retained their ability to proliferate in the presence of an appropriate stimulus. The cells, maintained in Ham's F12K medium containing 10% heat-inactivated dialyzed fetal bovine serum, were used between passages 32-35.
In this experiment, NIT-1 cells were seeded into 96-well plates. After 24 hours, the medium was replaced with fresh 2% fetal bovine serum containing medium, followed by treatments with 2-50 μM of CCompound1 and 30 min later with 20 mM STZ. Treatments were for 30 hours followed by the MTT assay to determine the relative number of viable cells (expressed as A540).

Structure (SMILES): Cc1c(OCC(O)C[N+](C)(C)C)cc2c(=O)c3ccccc3sc2c1C.[Cl-] (stereo not shown) [CCcompound1, [3-(3,4-Dimethyl-9-oxo-9H-thioxanthen-2-yloxy)-2-hydroxypropyl]trimethyl-ammonium chloride]
- effect on palmitic acid-induced decrease in the number of viable cells (RINm5F rat islet β-cells; 5 μM): partially prevented
- effect on palmitic acid-induced decrease in the number of viable cells (RINm5F rat islet β-cells; 10 μM): almost fully prevented
- effect on palmitic acid-induced decrease in the number of viable cells (RINm5F rat islet β-cells; 50 μM): added to the inhibitory effect of palmitic acid
- A540 (MTT, relative number of viable cells) (RINm5F rat islet β-cells; palmitic acid 0.5 mM + compound 5 μM): 1,198 ± 0.086
- A540 (MTT, relative number of viable cells) (RINm5F rat islet β-cells; palmitic acid 0.5 mM + compound 10 μM): 1,251 ± 0.069
- A540 (MTT, relative number of viable cells) (RINm5F rat islet β-cells; palmitic acid 0.5 mM + compound 50 μM): 0.836 ± 0.080
- effect on the inhibitory effects of STZ on cell proliferation (NIT-1 β-cells; 10 μM): almost fully reverses
- effect on the inhibitory effects of STZ on cell proliferation (NIT-1 β-cells; 50 μM): added to the inhibitory effects of STZ
- effect on the inhibitory effects of STZ on cell proliferation (NIT-1 β-cells; 2-5 μM): partially reverses
- A540 (MTT, relative number of viable cells) (NIT-1 β-cells; STZ 20 mM + compound 2 μM): 0.934 ± 0.053
- A540 (MTT, relative number of viable cells) (NIT-1 β-cells; STZ 20 mM + compound 5 μM): 1.078 ± 0.068
- A540 (MTT, relative number of viable cells) (NIT-1 β-cells; STZ 20 mM + compound 10 μM): 1.144 ± 0.056
- A540 (MTT, relative number of viable cells) (NIT-1 β-cells; STZ 20 mM + compound 50 μM): 0.718 ± 0.071
